Results taken from US6617343B1, “Hypoglycemic N,N-arylsulfonylglycine compounds” (Eli Lilly and Company, priority 1999, dated 2003).

Assays:
[1] = tested on: Male obese-diabetic viable yellow (AvY) mice; assay: Hypoglycemic efficacy: blood glucose in obese-diabetic viable yellow mice fed compound admixed in chow; assay type: in vivo; settings: dose .03 weight percent in diet; for % BG14 (BG0 = 100): blood glucose at day 14 as percent of initial value
Method: Male obese-diabetic viable yellow (AvY) mice were divided into two groups of 6 each. One group was fed repelletized purina 5008 Chow and the second group was fed repelletized Purina 5008 Chow, admixed with varying doses of the candidate compound. Blood samples were taken before the experiment was initiated and 7 and 14 days after initiation. Body weight and food consumption were monitored. The blood glucose level after 7 or 14 days of treatment was measured and recorded as a percent of the initial value, compared to the untreated control (first) group. The results are presented in the table 1 below; and include the dose of the candidate compound as a weight percent of the amount incorporated into the diet. Also in the table is a representative value for a positive control (a known hypoglycemic agent reported by a Takeda group [J. Med. Chem., 35, 2617]) administered in the same way as a canditate compound of the present invention.
BG means blood glucose level; BG0 means blood glucose level at day zero and BG14 means blood glucose level at day 14 accordingly.

Row | Compound | melting point | % BG14 (BG0 = 100), (day 7) ([1]; blood glucose at day 7 as percent of initial value) | % BG14 (BG0 = 100) [1] [%]
1 | CS(=O)(=O)N(CC(=O)O)c1ccc2oc(Cc3ccc4ccccc4c3)cc2c1 [Example 6, N-[5-(-2-(2-naphthylmethyl)benzofuranyl)]-N-methylsulfonylglycine] | 160 to 165 °C (dec.) | 93.1 (day 7) % | 
2 | CS(=O)(=O)N(CC(=O)[O-])c1ccc(OCCc2coc(-c3ccccc3)n2)cc1.[Na+] [Example 3, Sodium N-(4-(2-Phenyl-4-oxazolylethoxy)phenyl)-N-methylsulfonylglycinate] |  |  | 57.9
3 | CS(=O)(=O)N(CC(=O)O)c1ccc(OCCc2coc(-c3ccccc3)n2)cc1 [Example 2, N-4[-(2-(Phenyloxazol-4yl)ethoxy)phenyl]-N-methylsufonyl-glycine] | 200 to 201 °C |  | 76.4
4 | O=C(O)CN(c1ccc(OCCc2coc(-c3ccccc3)n2)cc1)S(=O)(=O)Cc1ccccc1 [Example 5, N-[4-(2-(phenyloxazol-4yl)ethoxy)phenyl]-N-phenylmethyl sulfonylglycine] | 147 to 149 °C |  | 77.0

Second part, led by results:

Row | melting point | Compound | % BG14 (BG0 = 100), (day 7) ([1]; blood glucose at day 7 as percent of initial value) | % BG14 (BG0 = 100) [1] [%]
5 | 154 to 156 °C | CN(C)S(=O)(=O)N(CC(=O)O)c1ccc(OCCc2coc(-c3ccccc3)n2)cc1 [Example 4, N-[4-(2-(Phenyloxazol-4yl)ethoxy)phenyl]-N-N′N′-dimethyl aminosulfonylglycine] |  | 70.1
6 | 136 to 139 °C | CC(C)S(=O)(=O)N(CC(=O)O)c1ccc(OCCc2coc(-c3ccccc3)n2)cc1 [Example 1, N-[4-(2-(Phenyloxazol-4yl)ethoxyl]phenyl)-N-isopropyl Sulfonylglycine] |  | 53.1
